Source: patent US20050084839A1, “Method for selecting oocytes by using a response to LPA stimulation” (Hitachi, Ltd., priority 2003, published 2005)
Where “and” joins values, the source holds several entries; their conditions need not be identical. Equal values may be shown once.

Test system: LPAR expressed endogenously in Xenopus laevis oocytes
Assay: Current response of oocytes to LPA stimulation (two-electrode voltage clamp)
Assay type: cell-based
Conditions: 1 nM LPA; for Response to LPA, Average: average of six cells, −60 mV; for Response to LPA (difference between current value before LPA stimulation and peak current value after): individual cells, membrane potential fixed to −60 mV
Description: First, an ovary is extracted from a female Xenopus laevis by a conventional method, and oocytes are isolated from the ovary by an enzymic treatment or the like. Oocytes not suitable for experiments are removed by a microscopic observation of their appearances such as size, shape, color and pattern. From the remaining group of oocytes, several cells, preferably 3 to 10 cells, more preferably 4 to 7 cells, and most preferably 6 cells are extracted at random. The membrane potential of the extracted oocytes is fixed to a constant voltage, for example, […] to −40 mV or +20 mV to +60 mV, preferably −60 mV by a known method such as two-electrode voltage clamp method or patch clamp method (See, e.g., Shin pacchikuranpu jikkengijutuhou, ed. Okada Yasunobu, Yoshiokashoten, Joron Ion Chaneru, pp. 1-14). By fixing the membrane potential, it is possible to measure the ionic current passing through channels or transporters of electrically resistant nature.
To the oocyte after fixing to a certain potential was added about 1 pM to 10 μM, preferably 100 pM to 100 nM, and most preferably 10 nM of LPA, followed by measurement of current response of the oocyte. An average current response is determined for a group of oocytes measured where the current response to LPA stimulation is the difference between the peak current value before LPA addition and the peak current value after LPA addition, providing the response of GPCR for a group of oocytes containing a brood of oocytes. A group of oocytes having a response of GPCR higher than a certain desirable value or within a certain desirable range are selected. The oocytes belonging to the group of oocytes selected in this way originate from a mother, and therefore, each oocyte has genetically nearly equal response of GPCR and may be considered excellent in response of GPCR.
Ovaries were extracted from mother bodies A, B, and C, and their follicle cells were removed by a conventional method. The oocytes after removal of follicles were selected based on their appearances that seemed suitable for experiments, and groups of oocytes were saved separately for each mother body (batches A, B, and C). From each batch, six oocytes were extracted at random, respectively.
The membrane potential of each cell was fixed to −60 mV by the two-electrode voltage clamp method. Each cell was stimulated by 1 nM LPA, and then the current response was measured. The difference between the current value before LPA stimulation and the peak current value after LPA stimulation was determined for each cell and shown in Table 1. There were differences in the responses to LPA among the batches.

Lysophosphatidic acid [LPA]
Response to LPA, Average (Batch A oocytes): 0.8 μA
Response to LPA (difference between current value before LPA stimulation and peak current value after) (Batch A oocytes): 1.1 μA and 1.5 μA and 0.6 μA (2×) and 0.3 μA and 0.8 μA
Response to LPA, Average (Batch B oocytes): 2.0 μA
Response to LPA (difference between current value before LPA stimulation and peak current value after) (Batch B oocytes): 2.5 μA and 1.8 μA and 2.6 μA and 1.1 μA and 2.3 μA and 1.4 μA
Response to LPA, Average (Batch C oocytes): 0.2 μA
Response to LPA (difference between current value before LPA stimulation and peak current value after) (Batch C oocytes): 0.1 μA (2×) and 0.3 μA and 0.4 μA and 0.0 μA and 0.2 μA
